Where “and” joins values, the source holds several entries; their conditions need not be identical. Identical values can stand only once.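 Assay format: 96-well plates, 48-hour exposure. GI50 marks 50% less growth. The concentration for full growth arrest is given as TGI.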

Consider 23 compounds from PubChem BioAssay (NCI).

Common to all, as to assay: inhibition of tumour cell growth, NCI panel, 48 h
The subject of experiment [1] is CAKI-1 renal.
The test system of experiment [2] is IGROV1 ovarian.
Experiment [3] concerns M14 melanoma.
The test system of experiment [4] is MALME-3M melanoma.
Experiment [5] has as its system MDA-MB-231 breast.
Experiment [6] deals with MDA-MB-435.
The subject of experiment [7] is NCI-H522 lung.
For experiment [8], the system named is SK-MEL-2 melanoma.
Experiment [9] concerns U251 CNS.
Experiment [10] relates to CCRF-CEM leukemia.

Take `O=C(O)CNC(=O)C1NC(C(F)(F)F)(C(F)(F)F)OC1(C(F)(F)F)C(F)(F)F` (stereo unspecified): the TGI in experiment [1], in [2], in [3], in [4], in experiment [5] and in experiment [6] was greater than 100 µM throughout. Besides, the TGI in experiment [7], in experiment [8] and in experiment [9] was greater than 100 µM throughout.
As to `CC1(C)OC2COC(c3[nH]nc4c(=O)[nH]c(=O)[nH]c34)C2O1` (stereo unspecified), the TGI in experiment [1], in experiment [2], in experiment [3], in [4], in experiment [5] and in experiment [6] was greater than 100 µM each time. The TGI in experiment [7], in [8] and in experiment [9] was greater than 100 µM in each case.
Regarding `CCN(CC)CCOc1ccc(Cc2ccccc2)cc1`, the GI50 in [1] was 29.5 µM; in experiment [2], 24 µM; in experiment [3] it was 17.3 µM; in [4], 17.2 µM; in [5], 28.2 µM; in [6] it was 18.5 µM. Also, the GI50 in experiment [7] was 18.4 µM; in experiment [8] it was 13.9 µM; in experiment [9], 26.5 µM. In addition, the TGI is greater than 100 µM in experiment [1]; 74.6 µM in experiment [2]; 34.6 µM in experiment [3]; 43.1 µM in [4]; greater than 100 µM in experiment [5]; 44.2 µM in experiment [6]. Further, the TGI in experiment [7] was greater than 100 µM; in [8], 50.5 µM; in experiment [9], greater than 100 µM.
As for `COc1cc2c(cc1OC)-c1ncc3cc(OC)c(OC)cc3c1C2`, the GI50 is greater than 50 µM in experiment [1]; 25.9 µM in experiment [10]; 20.2 µM in [2]; greater than 50 µM in experiment [3]; greater than 50 µM in [5]; greater than 50 µM in [6]. In addition, the GI50 in [7] is 24.5 µM; in experiment [8] it was greater than 50 µM; in experiment [9], greater than 50 µM. The TGI in experiment [1], in [10], in experiment [2], in experiment [3], in [5] and in experiment [6] was greater than 50 µM each time. For the same compound, the TGI in experiment [7], in experiment [8] and in experiment [9] was greater than 50 µM throughout.
Consider `COC(=O)[C@H](Cc1cn(C)cn1)NC(=O)[C@@H](NC(=O)Nc1cc(C(F)(F)F)cc(C(F)(F)F)c1)C(C)(C)C`, for which the GI50 in [1], in experiment [10], in experiment [2], in experiment [3], in [4] and in experiment [5] was greater than 10 µM throughout. Moreover, the GI50 in [6], in [8] and in [9] was greater than 10 µM throughout. Moreover, the TGI in experiment [1], in experiment [10], in experiment [2], in experiment [3], in [4] and in experiment [5] was greater than 10 µM in each case. The TGI in experiment [6], in experiment [8] and in [9] was greater than 10 µM throughout.
With `CCCCCCC(O)C(O)CCC(O)C1CCC(CCCCC(O)CC2=CC(C)OC2=O)O1` (stereo unspecified), the GI50 in [1] is 17.1 µM; in experiment [3], 17.7 µM; in experiment [5], 18.5 µM; in [8], 17.4 µM; in experiment [9], 15.1 µM. Further, the TGI in [1] was 41.6 µM; in experiment [3], 36 µM; in experiment [4] it was 33.8 µM; in experiment [5], 6.4 µM and 46.9 µM; in [6] it was 55.2 µM; in experiment [7] it was 22.8 µM. The TGI was 36 µM in experiment [8] and greater than 100 µM in experiment [9].
For the compound `CNC(=S)N(C1CCCCC1)C1CCCCC1`, the TGI in [1], in experiment [10], in [2], in experiment [3], in [4] and in experiment [5] was greater than 100 µM throughout. Further, the TGI in experiment [6], in experiment [8] and in experiment [9] was greater than 100 µM throughout.
With `COc1cc2c(cc1OC)-c1ncc3cc(OC)c(OC)c(OC)c3c1C2`, the GI50 in experiment [1] was 20.5 µM; in [2] it was 33.5 µM; in experiment [3] it was 45.2 µM; in experiment [5], 2.54 µM; in [6], 16.2 µM; in [7], 10.3 µM. Besides, the GI50 in [8] was 21.7 µM; in experiment [9], 36.8 µM. For the same compound, the TGI in experiment [1] was 86.1 µM; in experiment [2], greater than 100 µM; in experiment [3] it was greater than 100 µM; in experiment [5] it was 48.7 µM; in experiment [6], 42.6 µM; in [7], 41.7 µM. The results for the TGI in experiment [8] and in experiment [9] were 73.9 µM and greater than 100 µM, respectively.
For `Clc1nc(-c2ccccc2)nc(Cl)c1Cl`, the TGI in experiment [1] amounted to 8.62 µM; in [10] it was 7.99 µM; in [2], 21.6 µM; in [3] it was 19.7 µM; in experiment [4] it was 17.6 µM; in [5], 27.1 µM. Further, the TGI was 26.8 µM in experiment [6], 9.95 µM in experiment [7] and 21.5 µM in experiment [9].
Take `CCOc1ccc(N=Cc2ccc3ccccc3n2)cc1`: the TGI in [1], in experiment [10], in experiment [2], in experiment [3], in experiment [4] and in experiment [7] was greater than 100 µM each time. Moreover, the TGI in [8] and in experiment [9] was greater than 100 µM in each case.
Turning to `CCCCCN(CCCCC)C(=O)[C@H](CCC(=O)OCc1ccccc1)NC(=O)c1cc2ccccc2[nH]1`, the TGI in experiment [1], in [10], in experiment [2], in experiment [3], in experiment [4] and in [7] was greater than 100 µM throughout. In addition, the TGI in [8] and in [9] was greater than 100 µM in each case.
In the case of `CN1CCN(c2ccc(-c3cccc(CN4CCOCC4)c3)cc2NC(=O)c2c[nH]c(=O)cc2C(F)(F)F)CC1`, the GI50 in experiment [10] is 58.8 µM; in [2], 60.7 µM; in [3], 17.2 µM; in experiment [4] it was 21.6 µM; in experiment [5] it was 16.3 µM; in experiment [6], 30.2 µM. Further, the values for the GI50 in [7], in [8] and in experiment [9] were 16.7 µM, 27.3 µM and 23.6 µM, respectively. The TGI was greater than 100 µM in experiment [10]; greater than 100 µM in experiment [2]; 36.9 µM in experiment [3]; 51.4 µM in experiment [4]; 54.6 µM in experiment [5]; greater than 100 µM in [6]. Also, the TGI in experiment [7] was 39.5 µM; in [8], 72 µM; in experiment [9], greater than 100 µM.
With `COc1ccc(C(=O)c2cc(C)c(OC)c(C)c2)c(OC)c1N(C(=O)CCl)C(=O)CCl`, the GI50 in [1] was 0.0414 µM; in [10], 0.166 µM; in experiment [2], 0.0738 µM; in experiment [3], 0.0365 µM; in experiment [4], 0.0667 µM; in experiment [5] it was 0.149 µM. Besides, the GI50 in experiment [7] is 0.0349 µM; in experiment [8] it was 0.0522 µM; in experiment [9] it was 0.0509 µM. Further, the TGI in experiment [1] was 33.5 µM; in [10], greater than 37.8 µM; in experiment [2], 3.83 µM; in experiment [3], 0.531 µM; in experiment [4], 25.4 µM; in [5], 18.9 µM. Moreover, the results for the TGI in experiment [7], in experiment [8] and in [9] were 0.906 µM, 19.7 µM and 20.3 µM, respectively.
Turning to `C#CCN(Cc1nc2cc(C(F)(F)F)ccc2nc1-c1ccccc1)c1ccc(F)cc1`, the GI50 in experiment [1] is 62.2 µM; in [10], 27.1 µM; in experiment [2] it was 23.1 µM; in [3] it was 56.4 µM; in [4], 17.9 µM; in [5] it was 21.6 µM. For the same compound, the GI50 in experiment [6] is 38 µM; in [7] it was 22.4 µM; in experiment [9] it was 38 µM. Moreover, the TGI in experiment [1] is 92.2 µM; in experiment [10], greater than 100 µM; in experiment [2], greater than 100 µM; in experiment [3] it was greater than 100 µM; in [4], 53.5 µM; in experiment [5], 56.8 µM. Moreover, the TGI in experiment [6], in [7] and in [9] was greater than 100 µM in each case.
With `COc1cc(=O)oc(/C=C/C=C/C=C/C(C)=C\C2(C)OC(C)C(C)(O)C2O)c1C` (stereo unspecified), the TGI in [1], in [10], in [2], in experiment [3], in experiment [5] and in experiment [6] was greater than 100 µM throughout. The TGI in experiment [8] and in [9] was greater than 100 µM throughout.
Take `COC(=O)c1ccc(/C=C/S(=O)(=O)c2ccccc2)cc1`: the TGI in experiment [1], in experiment [10], in experiment [2], in [3], in experiment [4] and in [7] was greater than 100 µM each time. The TGI in experiment [8] and in [9] was greater than 100 µM throughout.
For the compound `CSC1SCC2C(=O)N(C)C(C(C)C)C(=O)OCC(NC(=O)c3cnc4ccccc4n3)C(=O)NC(C)C(=O)N(C)C1C(=O)N(C)C(C(C)C)C(=O)OCC(NC(=O)c1cnc3ccccc3n1)C(=O)NC(C)C(=O)N2C` (stereo unspecified), the GI50 in experiment [1], in experiment [10], in [2], in experiment [3], in experiment [4] and in [7] was less than 0.001 µM in each case. Moreover, the GI50 in [9] is less than 0.001 µM. The TGI in experiment [3] is 0.00121 µM and 0.00346 µM; in experiment [5], 0.00192 µM and 0.00985 µM and 0.0142 µM; in [8], 0.00126 µM.
Consider `N/C(=N\N=C\c1ccc(O)c(O)c1)NO`, for which the TGI in experiment [1], in experiment [10], in experiment [2], in experiment [3], in experiment [4] and in [7] was greater than 100 µM in each case. The TGI in experiment [8] and in experiment [9] was greater than 100 µM throughout.
Regarding `Cn1cc2ccccc2c1-c1nc(F)nc(Nc2ccc(N)cc2)n1`, the TGI in experiment [1] was found to be 45 µM; in experiment [10] it was 67.5 µM; in experiment [2], 28.5 µM; in experiment [3] it was 27.3 µM; in experiment [4], 39.2 µM; in experiment [7] it was 28.9 µM. For the same compound, the TGI in experiment [8] worked out at 30.1 µM; in experiment [9], 26.4 µM.
On to `CC1=CC2=C(C#N)C(=O)OC2(C)C(c2ccccc2)C1` (stereo unspecified), for which the TGI in experiment [2], in experiment [3], in [4], in experiment [5], in experiment [6] and in experiment [7] was greater than 100 µM throughout. In addition, the TGI in experiment [8] and in [9] was greater than 100 µM in each case.
As for `Cc1ccc(-c2cc(=O)c3cc(C)c(C)c(C(=O)O)c3o2)cc1[N+](=O)[O-]`, the TGI in [1], in experiment [10], in experiment [2], in [3], in experiment [4] and in [7] was greater than 100 µM throughout. The TGI in experiment [8] and in experiment [9] was greater than 100 µM in each case.
`CCCCCCCCCCCCC(NC(C)=O)(C(=O)OCC)C(=O)OCC`: the GI50 was 10.6 µM in experiment [1]; 16.8 µM in [10]; 12.6 µM in experiment [2]; 12.7 µM in experiment [3]; 12.5 µM in experiment [4]; 12.6 µM in [5]. The figures for the GI50 in experiment [6] and in [9] were 12.6 µM and 12.4 µM, respectively. Moreover, the TGI in experiment [1] stood at 27.4 µM; in [10], 41.6 µM; in [2] it was 37.2 µM; in experiment [3], 27.3 µM; in experiment [4], 29.1 µM; in experiment [5], 26.7 µM. Besides, the TGI worked out at 31.7 µM in [6] and 28.5 µM in experiment [9].
Regarding `CC(CCC(=O)O)c1ccc(Br)cc1` (stereo unspecified), the TGI in experiment [1], in [10], in [2], in experiment [3], in experiment [4] and in [7] was greater than 100 µM in each case. The TGI in experiment [8] and in experiment [9] was greater than 100 µM each time.
